ChEMBL document CHEMBL3045777, “Response of selected horseweed (Conyza canadensis (L.) Cronq.) populations to glyphosate” (2004)

What was measured:
Erigeron canadensis [1] = experiment: Herbicidal activity against compound-sensitive Conyza canadensis (horseweed) under greenhouse condition at 0.45 kg ae/ha measured 14 days post treatment relative to control; format: functional
Erigeron canadensis [2] = experiment: Herbicidal activity against compound-sensitive Conyza canadensis (horseweed) under greenhouse condition at 1.68 kg ae/ha measured 21 days post treatment relative to control; format: functional
Erigeron canadensis [3] = experiment: Herbicidal activity against compound-sensitive Conyza canadensis (horseweed) under greenhouse condition at 0.45 kg ae/ha measured 7 days post treatment relative to control; format: functional
Erigeron canadensis [4] = experiment: Herbicidal activity against compound-resistant Conyza canadensis (horseweed) isolate 1 under greenhouse condition at 1.25 kg ae/ha measured 7 days post treatment relative to control; format: functional
Erigeron canadensis [5] = experiment: Herbicidal activity against Conyza canadensis (horseweed) under greenhouse condition assessed as decrease in fresh weight at 0.05 kg ae/ha measured 21 days post treatment relative to untreated control; format: functional
Erigeron canadensis [6] = experiment: Herbicidal activity against compound-resistant Conyza canadensis (horseweed) isolate 1 under greenhouse condition at 0.45 kg ae/ha measured 14 days post treatment relative to control; format: functional
Erigeron canadensis [7] = experiment: Herbicidal activity against compound-resistant Conyza canadensis (horseweed) isolate 1 under greenhouse condition at 2.52 kg ae/ha measured 14 days post treatment relative to control; format: functional
Erigeron canadensis [8] = experiment: Herbicidal activity against compound-resistant Conyza canadensis (horseweed) isolate 2 under greenhouse condition assessed as fresh weight at 1.68 kg ae/ha measured 21 days post treatment relative to untreated control
Erigeron canadensis [9] = experiment: Herbicidal activity against compound-sensitive Conyza canadensis (horseweed) under greenhouse condition at 0.84 kg ae/ha measured 21 days post treatment relative to control; format: functional
Erigeron canadensis [10] = experiment: Herbicidal activity against compound-sensitive Conyza canadensis (horseweed) under greenhouse condition at 3.36 kg ae/ha measured 14 days post treatment relative to control; format: functional
Erigeron canadensis [11] = experiment: Herbicidal activity against compound-sensitive Conyza canadensis (horseweed) under greenhouse condition at 0.84 kg ae/ha measured 7 days post treatment relative to control; format: functional
Erigeron canadensis [12] = experiment: Herbicidal activity against compound-resistant Conyza canadensis (horseweed) isolate 2 under greenhouse condition at 3.36 kg ae/ha measured 21 days post treatment relative to control; format: functional
Erigeron canadensis [13] = experiment: Herbicidal activity against compound-resistant Conyza canadensis (horseweed) isolate 1 under greenhouse condition at 3.36 kg ae/ha measured 21 days post treatment relative to control; format: functional
Erigeron canadensis [14] = experiment: Herbicidal activity against compound-resistant Conyza canadensis (horseweed) isolate 2 under greenhouse condition at 2.52 kg ae/ha measured 7 days post treatment relative to control; format: functional
Erigeron canadensis [15] = experiment: Herbicidal activity against compound-resistant Conyza canadensis (horseweed) isolate 2 under greenhouse condition at 1.25 kg ae/ha measured 7 days post treatment relative to control; format: functional
Erigeron canadensis [16] = experiment: Herbicidal activity against compound-resistant Conyza canadensis (horseweed) isolate 1 under greenhouse condition at 1.25 kg ae/ha measured 21 days post treatment relative to control; format: functional
Erigeron canadensis [17] = experiment: Herbicidal activity against Conyza canadensis (horseweed) under greenhouse condition at 0.05 kg ae/ha measured 14 days post treatment relative to control; format: functional
Erigeron canadensis [18] = experiment: Herbicidal activity against compound-resistant Conyza canadensis (horseweed) isolate 1 under greenhouse condition assessed as fresh weight at 9 kg ae/ha measured 21 days post treatment relative to untreated control
Erigeron canadensis [19] = experiment: Herbicidal activity against compound-resistant Conyza canadensis (horseweed) isolate 2 under greenhouse condition at 3.36 kg ae/ha measured 14 days post treatment relative to control; format: functional
Erigeron canadensis [20] = experiment: Herbicidal activity against compound-resistant Conyza canadensis (horseweed) isolate 2 under greenhouse condition at 0.45 kg ae/ha measured 14 days post treatment relative to control; format: functional
Erigeron canadensis [21] = experiment: Herbicidal activity against compound-sensitive Conyza canadensis (horseweed) under greenhouse condition at 1.68 kg ae/ha measured 7 days post treatment relative to control; format: functional
Erigeron canadensis [22] = experiment: Herbicidal activity against compound-resistant Conyza canadensis (horseweed) isolate 2 under greenhouse condition at 1.68 kg ae/ha measured 14 days post treatment relative to control; format: functional
Erigeron canadensis [23] = experiment: Herbicidal activity against compound-resistant Conyza canadensis (horseweed) isolate 2 under greenhouse condition at 0.84 kg ae/ha measured 21 days post treatment relative to control; format: functional
Erigeron canadensis [24] = experiment: Herbicidal activity against compound-sensitive Conyza canadensis (horseweed) under greenhouse condition at 3.36 kg ae/ha measured 21 days post treatment relative to control; format: functional
Erigeron canadensis [25] = experiment: Herbicidal activity against compound-resistant Conyza canadensis (horseweed) isolate 1 under greenhouse condition at 2.52 kg ae/ha measured 21 days post treatment relative to control; format: functional
Erigeron canadensis [26] = experiment: Herbicidal activity against compound-resistant Conyza canadensis (horseweed) isolate 1 under greenhouse condition at 2.52 kg ae/ha measured 7 days post treatment relative to control; format: functional
Erigeron canadensis [27] = experiment: Herbicidal activity against compound-resistant Conyza canadensis (horseweed) isolate 1 under greenhouse condition assessed as fresh weight at 0.84 kg ae/ha measured 21 days post treatment relative to untreated control
Erigeron canadensis [28] = experiment: Herbicidal activity against compound-resistant Conyza canadensis (horseweed) isolate 2 under greenhouse condition at 2.52 kg ae/ha measured 21 days post treatment relative to control; format: functional
Erigeron canadensis [29] = experiment: Herbicidal activity against compound-resistant Conyza canadensis (horseweed) isolate 1 under greenhouse condition at 9 kg ae/ha measured 14 days post treatment relative to control; format: functional
Erigeron canadensis [30] = experiment: Herbicidal activity against compound-sensitive Conyza canadensis (horseweed) under greenhouse condition assessed as fresh weight at 9 kg ae/ha measured 21 days post treatment relative to untreated control
Erigeron canadensis [31] = experiment: Herbicidal activity against compound-resistant Conyza canadensis (horseweed) isolate 1 under greenhouse condition at 3.36 kg ae/ha measured 7 days post treatment relative to control; format: functional
Erigeron canadensis [32] = experiment: Herbicidal activity against compound-resistant Conyza canadensis (horseweed) isolate 2 under greenhouse condition at 1.68 kg ae/ha measured 7 days post treatment relative to control; format: functional
Erigeron canadensis [33] = experiment: Herbicidal activity against compound-sensitive Conyza canadensis (horseweed) under greenhouse condition at 1.25 kg ae/ha measured 21 days post treatment relative to control; format: functional
Erigeron canadensis [34] = experiment: Herbicidal activity against compound-resistant Conyza canadensis (horseweed) isolate 2 under greenhouse condition assessed as fresh weight at 3.36 kg ae/ha measured 21 days post treatment relative to untreated control
Erigeron canadensis [35] = experiment: Herbicidal activity against compound-resistant Conyza canadensis (horseweed) isolate 2 under greenhouse condition at 9 kg ae/ha measured 14 days post treatment relative to control; format: functional
Erigeron canadensis [36] = experiment: Herbicidal activity against compound-resistant Conyza canadensis (horseweed) isolate 2 under greenhouse condition at 0.84 kg ae/ha measured 14 days post treatment relative to control; format: functional
Erigeron canadensis [37] = experiment: Herbicidal activity against compound-sensitive Conyza canadensis (horseweed) under greenhouse condition at 0.84 kg ae/ha measured 14 days post treatment relative to control; format: functional
Erigeron canadensis [38] = experiment: Herbicidal activity against compound-resistant Conyza canadensis (horseweed) isolate 1 under greenhouse condition assessed as fresh weight at 0.45 kg ae/ha measured 21 days post treatment relative to untreated control

O=C(O)CNCP(=O)(O)O [GLYPHOSATE]
Activity (Erigeron canadensis [1]): 40% | Activity (Erigeron canadensis [2]): 99% | Activity (Erigeron canadensis [3]): 40% | Activity (Erigeron canadensis [4]): 28% | Activity (Erigeron canadensis [5]): 4 g | Activity (Erigeron canadensis [6]): 8% | Activity (Erigeron canadensis [7]): 45% | level, % of control (Erigeron canadensis [8]): 49% | Activity (Erigeron canadensis [9]): 88% | Activity (Erigeron canadensis [10]): 95% | Activity (Erigeron canadensis [11]): 58% | Activity (Erigeron canadensis [12]): 75% | Activity (Erigeron canadensis [13]): 75% | Activity (Erigeron canadensis [14]): 53% | Activity (Erigeron canadensis [15]): 33% | Activity (Erigeron canadensis [16]): 30% | Activity (Erigeron canadensis [17]): 16% | level, % of control (Erigeron canadensis [18]): 9% | Activity (Erigeron canadensis [19]): 69% | Activity (Erigeron canadensis [20]): 13% | Activity (Erigeron canadensis [21]): 63% | Activity (Erigeron canadensis [22]): 44% | Activity (Erigeron canadensis [23]): 24% | Activity (Erigeron canadensis [24]): 99% | Activity (Erigeron canadensis [25]): 59% | Activity (Erigeron canadensis [26]): 58% | level, % of control (Erigeron canadensis [27]): 94% | Activity (Erigeron canadensis [28]): 63% | Activity (Erigeron canadensis [29]): 80% | level, % of control (Erigeron canadensis [30]): 1% | Activity (Erigeron canadensis [31]): 73% | Activity (Erigeron canadensis [32]): 50% | Activity (Erigeron canadensis [33]): 90% | level, % of control (Erigeron canadensis [34]): 18% | Activity (Erigeron canadensis [35]): 91% | Activity (Erigeron canadensis [36]): 14% | Activity (Erigeron canadensis [37]): 63% | level, % of control (Erigeron canadensis [38]): 99%
